Results from US12404269B2, “Aminoquinazolinone and aminoisoquinolinone derivatives and application thereof” (ZHEJIANG UNIVERSITY, priority 2018, dated 2025).
Like-named read-outs stand apart in the source and are kept apart here.

What was measured:
[1] = system: MCF7 (PIK3CA mut); assay: Tumor cell proliferation, CCK8 method, MCF7; assay type: cell-based, human; conditions: CCK8, MCF7, read-out: MCF7 (PIK3CA mut) proliferation IC50
Procedure: (§1) The IC50 value was calculated using Graphpad Prism V5.0 software.

[2] = system: KPL4 (PIK3CA mut); assay: Tumor cell proliferation, CCK8 method, KPL4; assay type: cell-based; conditions: CCK8, KPL4; read-out: KPL4 (PIK3CA mut) proliferation IC50
Procedure: as §1

[3] = system: ZR-75-1 (PTEN loss); assay: Tumor cell proliferation, CCK8 method, ZR-75-1; assay type: cell-based; conditions: CCK8, ZR-75-1
Procedure: as §1

[4] = system: SW48 (PIK3CA mut); assay: Tumor cell proliferation, CCK8 method, SW48; assay type: cell-based; conditions: CCK8, SW48, read-out: SW48 (PIK3CA mut) proliferation IC50
Procedure: as §1

[5] = molecular target: T1, PI3Kδ (Homo sapiens, UniProt O00329); assay: PI3Kδ molecular activity test (ADP-GLO); assay type: biochemical; conditions: recombinant protein
T1 construct: purchased Carna Bioscience
Procedure: (§2) Instrument: ELISA Reader Envision™ (PerkinElmer, USA)
(§3) Materials: Human recombinant PI3K and PI3Kδ proteins, purchased from Carna Bioscience; ADP-GLO kit, purchased from Promega.
(§4) Take the PI3Kα Molecular Activity Test as an Example to Describe the Text Method of the PI3K Subtypes
(§5) PI3K-α recombinant protein and substrate ATP were diluted with kinase reaction buffer (50 mM Tris-HCl, pH 7.4, 2.1 mM DTT, 0.05% Tween-20, 10 mM MgCl2). […] The specific reaction system was 2% of DMSO, 0.8 ng/μL PI3K-α, and 100 μM ATP, the positive compound control groups and control wells were set, and there were 3 multiple-wells for each concentration of each sample. After incubating for 2 hours at room temperature, ADP-GLO Reagent and Kinase Detection Reagent were added respectively, and then Envision™ was used to detect the […] readings. The activity rate of the samples were calculated by the sample readings, and the calculation formula was: activity rate=(ODcompound−ODcontrol)/(ODDMSO−ODcontro) ×100%.

[6] = molecular target: T2, PI3Kα (Homo sapiens, UniProt P42336); assay: PI3Kα molecular activity test (ADP-GLO); assay type: biochemical; conditions: for Selectivity (PI3Kδ IC50/PI3KαIC50): PI3Kδ IC50/PI3Kα IC50; for IC50: recombinant protein, 100 μM ATP, 2 hours at room temperature
T2 construct: purchased Carna Bioscience
Procedure: as §2, §3, §4, §5

T2 sequence (P42336 whole entry): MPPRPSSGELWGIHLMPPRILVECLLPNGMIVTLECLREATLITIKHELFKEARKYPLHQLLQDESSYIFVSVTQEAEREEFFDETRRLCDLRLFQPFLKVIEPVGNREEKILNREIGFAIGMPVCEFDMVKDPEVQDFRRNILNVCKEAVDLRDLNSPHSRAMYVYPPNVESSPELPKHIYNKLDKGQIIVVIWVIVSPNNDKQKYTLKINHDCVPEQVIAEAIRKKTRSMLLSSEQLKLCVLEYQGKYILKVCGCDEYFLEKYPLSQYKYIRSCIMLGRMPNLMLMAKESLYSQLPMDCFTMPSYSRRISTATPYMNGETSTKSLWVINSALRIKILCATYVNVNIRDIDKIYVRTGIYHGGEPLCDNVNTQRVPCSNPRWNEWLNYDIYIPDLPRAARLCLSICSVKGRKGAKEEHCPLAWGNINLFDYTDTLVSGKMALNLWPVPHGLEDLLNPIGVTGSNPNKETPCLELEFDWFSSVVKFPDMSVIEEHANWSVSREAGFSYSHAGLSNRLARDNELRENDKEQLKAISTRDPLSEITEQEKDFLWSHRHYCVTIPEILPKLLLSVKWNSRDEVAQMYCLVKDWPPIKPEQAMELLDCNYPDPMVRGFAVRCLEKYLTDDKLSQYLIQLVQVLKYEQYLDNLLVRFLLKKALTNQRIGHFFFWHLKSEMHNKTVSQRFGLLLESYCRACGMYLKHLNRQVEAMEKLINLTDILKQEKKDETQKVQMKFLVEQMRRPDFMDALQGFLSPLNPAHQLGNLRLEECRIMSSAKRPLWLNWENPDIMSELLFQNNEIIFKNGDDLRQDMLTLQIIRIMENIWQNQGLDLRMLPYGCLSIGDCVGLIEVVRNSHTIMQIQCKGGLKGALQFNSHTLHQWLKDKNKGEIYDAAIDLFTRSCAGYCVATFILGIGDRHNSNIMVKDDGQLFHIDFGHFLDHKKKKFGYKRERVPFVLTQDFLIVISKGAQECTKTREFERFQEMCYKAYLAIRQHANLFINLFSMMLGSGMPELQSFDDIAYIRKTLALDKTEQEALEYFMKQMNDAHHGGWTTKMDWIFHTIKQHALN
T2 sequence (P27986 whole entry partner): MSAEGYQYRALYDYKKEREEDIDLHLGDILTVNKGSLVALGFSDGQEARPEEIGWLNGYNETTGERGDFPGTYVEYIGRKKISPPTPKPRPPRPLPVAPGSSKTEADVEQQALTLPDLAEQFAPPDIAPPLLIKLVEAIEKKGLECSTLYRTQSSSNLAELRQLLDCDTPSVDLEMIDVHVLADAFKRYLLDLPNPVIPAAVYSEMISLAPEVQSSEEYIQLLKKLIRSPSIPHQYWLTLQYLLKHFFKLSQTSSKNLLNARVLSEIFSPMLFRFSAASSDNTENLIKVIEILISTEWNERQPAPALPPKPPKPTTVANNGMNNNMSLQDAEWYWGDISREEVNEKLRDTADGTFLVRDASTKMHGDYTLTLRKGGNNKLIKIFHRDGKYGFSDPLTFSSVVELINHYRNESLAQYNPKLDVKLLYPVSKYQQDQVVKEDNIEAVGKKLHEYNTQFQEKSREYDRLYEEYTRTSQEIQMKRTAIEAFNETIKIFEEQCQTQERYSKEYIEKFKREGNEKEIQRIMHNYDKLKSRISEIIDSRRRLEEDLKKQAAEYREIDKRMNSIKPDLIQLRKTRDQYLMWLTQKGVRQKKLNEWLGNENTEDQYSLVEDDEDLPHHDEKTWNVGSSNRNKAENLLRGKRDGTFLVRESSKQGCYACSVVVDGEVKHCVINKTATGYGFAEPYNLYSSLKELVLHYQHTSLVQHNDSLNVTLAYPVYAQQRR
T1 sequence (O00329 whole entry): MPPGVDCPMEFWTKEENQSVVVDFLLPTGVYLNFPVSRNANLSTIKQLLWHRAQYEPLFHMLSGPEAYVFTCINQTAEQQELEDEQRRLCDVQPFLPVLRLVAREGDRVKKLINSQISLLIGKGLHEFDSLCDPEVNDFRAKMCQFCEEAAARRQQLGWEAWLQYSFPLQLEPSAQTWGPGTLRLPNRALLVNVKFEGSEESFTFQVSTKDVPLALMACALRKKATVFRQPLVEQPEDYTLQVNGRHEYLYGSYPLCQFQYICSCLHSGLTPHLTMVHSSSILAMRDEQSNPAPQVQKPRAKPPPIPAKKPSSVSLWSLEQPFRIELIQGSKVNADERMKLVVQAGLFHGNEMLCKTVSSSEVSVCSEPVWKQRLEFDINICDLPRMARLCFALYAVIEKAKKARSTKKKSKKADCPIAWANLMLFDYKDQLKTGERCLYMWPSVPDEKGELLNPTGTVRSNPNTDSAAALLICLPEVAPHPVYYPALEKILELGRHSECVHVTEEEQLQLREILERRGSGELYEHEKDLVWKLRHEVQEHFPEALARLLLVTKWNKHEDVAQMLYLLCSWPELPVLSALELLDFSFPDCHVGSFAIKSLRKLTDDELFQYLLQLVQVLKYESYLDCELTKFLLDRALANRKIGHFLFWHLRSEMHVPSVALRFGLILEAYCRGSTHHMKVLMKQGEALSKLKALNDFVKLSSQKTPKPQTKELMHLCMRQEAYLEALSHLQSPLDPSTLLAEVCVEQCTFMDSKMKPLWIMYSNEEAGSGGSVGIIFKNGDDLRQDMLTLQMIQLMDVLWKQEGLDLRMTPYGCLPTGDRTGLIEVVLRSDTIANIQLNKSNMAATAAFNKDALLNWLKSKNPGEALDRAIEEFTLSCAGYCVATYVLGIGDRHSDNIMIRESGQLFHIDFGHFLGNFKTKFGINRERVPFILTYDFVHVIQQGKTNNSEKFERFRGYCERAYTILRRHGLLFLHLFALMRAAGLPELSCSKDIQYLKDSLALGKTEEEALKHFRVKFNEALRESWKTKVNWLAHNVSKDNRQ
T1 sequence (P27986 whole entry partner): as the sequence (P27986 whole entry partner) above

Compound | IC50 ([1]; Homo sapiens) | IC50 [2] | IC50 ([3]; Homo sapiens) | IC50 ([4]; Homo sapiens) | IC50 [5] | Selectivity (PI3Kδ IC50/PI3KαIC50) [6] | IC50 [6] | IC50 [1] | IC50 [3] | IC50 [4]
COc1c(OCCNS(C)(=O)=O)ccc2c(=O)n(C)c(NC(=O)c3ccc(N)nc3)nc12 [8a-40, 6-amino-N-(8-methoxy-3-methyl-7-(2-(methylsulfonamido)ethoxy)-4-oxo-3,4-dihydroquinazoline-2-yl) nicotinamide] | < 20 nM | 20 to 200 nM | 200 to 1000 nM | 20 to 200 nM | 20 to 200 nM | II (“II” represents 5-10 times) | < 20 nM | – | – | –
CCn1c(NC(=O)c2cnc(N)nc2)nc2c(OC)c(OCC(N)=O)ccc2c1=O [8b-2] | < 20 nM | 20 to 200 nM | 20 to 200 nM | 20 to 200 nM | 20 to 200 nM | III (“III” represents >10 times) | < 20 nM | – | – | –
CCn1c(NC(=O)c2cnc(N)nc2)nc2c(OC)c(OCCS(N)(=O)=O)ccc2c1=O [8b-11] | < 20 nM | < 20 nM | 20 to 200 nM | 20 to 200 nM | < 20 nM | II (“II” represents 5-10 times) | < 20 nM | – | – | –
CCn1c(NC(=O)c2cnc(N)nc2)nc2c(OC)c(OC[C@@H](O)CN3CCOCC3)ccc2c1=O [8b-27, (S)-2-amino-N-(3-ethyl-7-(2-hydroxy-3-morpholinopropoxy)-8-methoxy-4-oxo-3,4-dihydroquinazolin-2-yl) pyrimidine-5-carboxamide] | < 20 nM | 20 to 200 nM | 200 to 1000 nM | 20 to 200 nM | 200 to 1000 nM | II (“II” represents 5-10 times) | < 20 nM | – | – | –
CCn1c(NC(=O)c2cnc(N)nc2)nc2c(OC)c(OC[C@H](O)CN3CCOCC3)ccc2c1=O [8b-28, (R)-2-amino-N-(3-ethyl-7-(2-hydroxy-3-morpholinopropoxy)-8-methoxy-4-oxo-3,4-dihydroquinazolin-2-yl) pyrimidine-5-carboxamide] | < 20 nM | 20 to 200 nM | 200 to 1000 nM | 20 to 200 nM | 200 to 1000 nM | II (“II” represents 5-10 times) | < 20 nM | – | – | –
CCn1c(NC(=O)c2cnc(N)nc2)nc2c(OC)c(OCCNS(C)(=O)=O)ccc2c1=O [8b-29, 2-amino-N-(3-ethyl-8-methoxy-7-(2-(methylsulfonamido)ethoxy)-4-oxo-3,4-dihydroquinazolin-2-yl) pyrimidine-5-carboxamide] | < 20 nM | 20 to 200 nM | 200 to 1000 nM | 20 to 200 nM | 200 to 1000 nM | III (“III” represents >10 times) | < 20 nM | – | – | –
CCn1c(NC(=O)c2cnc(N)nc2)nc2c(OC)c(OCC(C)NS(C)(=O)=O)ccc2c1=O (centres unmarked) [8b-30, 2-amino-N-(3-ethyl-8-methoxy-7-(2-(methylsulfonamido)propoxy)-4-oxo-3,4-dihydroquinazolin-2-yl) pyrimidine-5-carboxamide] | – | 20 to 200 nM | – | – | 200 to 1000 nM | II (“II” represents 5-10 times) | < 20 nM | < 20 nM | 200 to 1000 nM | 20 to 200 nM
CCn1c(NC(=O)c2ccc(N)nc2)nc2c(OC)c(OC[C@@H](O)CN3CCOCC3)ccc2c1=O [8b-46, (S)-6-amino-N-(3-ethyl-7-(2-hydroxy-3-morpholinopropoxy)-8-methoxy-4-oxo-3,4-dihydroquinazolin-2-yl) nicotinamide] | < 20 nM | 20 to 200 nM | 200 to 1000 nM | 20 to 200 nM | 200 to 1000 nM | II (“II” represents 5-10 times) | < 20 nM | – | – | –
CCn1c(NC(=O)c2ccc(N)nc2)nc2c(OC)c(OC[C@H](O)CN3CCOCC3)ccc2c1=O [8b-47, (R)-6-amino-N-(3-ethyl-7-(2-hydroxy-3-morpholinopropoxy)-8-methoxy-4-oxo-3,4-dihydroquinazolin-2-yl) nicotinamide] | < 20 nM | 20 to 200 nM | 200 to 1000 nM | 20 to 200 nM | 200 to 1000 nM | II (“II” represents 5-10 times) | < 20 nM | – | – | –
CCn1c(NC(=O)c2ccc(N)nc2)nc2c(OC)c(OCC(=O)NCCN3CCOCC3)ccc2c1=O [8b-48, 6-amino-N-(3-ethyl-8-methoxy-7-(2-((2-morpholinoethyl)amino)-2-oxoethoxy)-4-oxo-3,4-dihydroquinazolin-2-yl)nicotinamide] | < 20 nM | 20 to 200 nM | 200 to 1000 nM | 20 to 200 nM | 200 to 1000 nM | II (“II” represents 5-10 times) | < 20 nM | – | – | –
CCn1c(NC(=O)c2cnc(N)nc2)cc2c(OC)c(OCCCN3CCOCC3)ccc2c1=O [8b′-1] | < 20 nM | 20 to 200 nM | 20 to 200 nM | 20 to 200 nM | < 20 nM | I (“I” represents <5 times) | < 20 nM | – | – | –
